Patent US20160122821A1, “GENETIC MARKERS OF ANTIPSYCHOTIC RESPONSE” (SUREGENE, LLC, priority 2013, published 2016)

System: Caucasian patients with schizophrenia (CATIE)
Assay: Genetic association (linear regression, additive model) of SNP alleles with MMRM-modelled change in PANSS Total Score under antipsychotic treatment, CATIE trial
Format: in vivo, human

## OCCOCCN1CCN(C2=Nc3ccccc3Sc3ccccc32)CC1 [Quetiapine, quetiapine]
AKAP9 rs35759833 allele C, P 4.46E−02
  Beta (PANSS): −4.62 PANSS
ARSB rs25414 allele C, P 2.37E−03
  Beta (PANSS): −9.37 PANSS
ATP2B2 rs11712897 allele C, P 2.77E−02
  Beta (PANSS): −3.54 PANSS
C13orf35 rs4907727 allele C, P 2.16E−02
  Beta (PANSS): −3.58 PANSS
C15orf41 rs8027206 allele A, P 2.90E−02
  Beta (PANSS): −3.40 PANSS
CA10 rs7210687 allele C, P 2.52E−02
  Beta (PANSS): −3.24 PANSS
CA10 rs17607202 allele C, P 3.87E−02
  Beta (PANSS): −3.10 PANSS
CACNA2D3 rs9861155 allele A, P 2.07E−02
  Beta (PANSS): −4.28 PANSS
CCBE1 rs12606241 allele G, P 3.38E−02
  Beta (PANSS): −4.12 PANSS
CDH13 rs3935908 allele G, P 4.47E−02
  Beta (PANSS): −2.89 PANSS
CDH13 rs8048616 allele C, P 2.03E−02
  Beta (PANSS): −3.49 PANSS
CERK rs78424 allele A, P 2.86E−02
  Beta (PANSS): −3.60 PANSS
CHRM3 rs4659552 allele A, P 3.50E−02
  Beta (PANSS): −3.02 PANSS
CLSTN2 rs10513102 allele C, P 4.28E−02
  Beta (PANSS): −4.05 PANSS
CNTN6 rs7646412 allele A, P 2.28E−02
  Beta (PANSS): −4.64 PANSS
CNTNAP2 rs10240221 allele A, P 3.63E−02
  Beta (PANSS): −3.22 PANSS
COL22A1 rs4311658 allele G, P 2.37E−03
  Beta (PANSS): −5.04 PANSS
COL22A1 rs4442151 allele C, P 2.37E−03
  Beta (PANSS): −5.04 PANSS
CPLX2 rs2243404 allele C, P 2.25E−02
  Beta (PANSS): −4.30 PANSS
CSMD1 rs2616996 allele G, P 4.49E−02
  Beta (PANSS): −3.44 PANSS
CTNNA2 rs10201249 allele A, P 2.33E−02
  Beta (PANSS): −4.77 PANSS
CTNNA2 rs10520244 allele C, P 2.12E−02
  Beta (PANSS): −6.07 PANSS
CTNNA2 rs17018593 allele A, P 2.95E−02
  Beta (PANSS): −4.25 PANSS
DENND4C rs2666797 allele C, P 2.72E−02
  Beta (PANSS): −3.79 PANSS
DGKD rs838717 allele A, P 2.74E−02
  Beta (PANSS): −3.38 PANSS
DLC1 rs12677920 allele A, P 3.27E−02
  Beta (PANSS): −3.35 PANSS
DLG2 rs7101982 allele C, P 4.47E−02
  Beta (PANSS): −2.93 PANSS
DYNC1I1 rs17638044 allele C, P 2.39E−03
  Beta (PANSS): −8.72 PANSS
ERG rs10854385 allele A, P 3.76E−02
  Beta (PANSS): −4.00 PANSS
ESRRG rs9441544 allele C, P 2.40E−02
  Beta (PANSS): −4.04 PANSS
ETV1 rs41505 allele C, P 2.62E−03
  Beta (PANSS): −4.08 PANSS
EXOC2 rs1747599 allele G, P 4.44E−02
  Beta (PANSS): −3.71 PANSS
EXOC2 rs17135234 allele A, P 3.55E−02
  Beta (PANSS): −4.93 PANSS
FBXL2 rs6772365 allele C, P 4.07E−02
  Beta (PANSS): −3.45 PANSS
FHIT rs12636662 allele A, P 2.18E−03
  Beta (PANSS): −4.62 PANSS
FLJ38109 rs11167681 allele C, P 3.82E−02
  Beta (PANSS): −3.35 PANSS
FMN2 rs1020709 allele C, P 3.77E−02
  Beta (PANSS): −3.38 PANSS
FMNL2 rs1155779 allele C, P 2.20E−02
  Beta (PANSS): −3.41 PANSS
FOXP1 rs831440 allele C, P 3.37E−02
  Beta (PANSS): −3.67 PANSS
GALNTL4 rs4909979 allele C, P 2.49E−02
  Beta (PANSS): −5.30 PANSS
GNG2 rs1343870 allele G, P 4.37E−02
  Beta (PANSS): −3.12 PANSS
GPR116 rs9395218 allele C, P 3.77E−02
  Beta (PANSS): −4.73 PANSS
GRID2 rs1433667 allele C, P 2.84E−03
  Beta (PANSS): −4.87 PANSS
GRID2 rs1836115 allele A, P 3.01E−02
  Beta (PANSS): −3.53 PANSS
GRID2 rs13103135 allele C, P 4.20E−02
  Beta (PANSS): −3.66 PANSS
GRM8 rs17865066 allele A, P 2.61E−02
  Beta (PANSS): −10.79 PANSS
GRM8 rs17865434 allele C, P 2.61E−02
  Beta (PANSS): −10.79 PANSS
HAAO rs3755540 allele C, P 2.01E−02
  Beta (PANSS): −3.79 PANSS
INMT-FAM188B;FAM188B rs10230286 allele A, P 2.09E−02
  Beta (PANSS): −3.51 PANSS
INMT-FAM188B;FAM188B rs11972565 allele A, P 2.70E−02
  Beta (PANSS): −3.53 PANSS
ITPR2 rs11048710 allele A, P 3.74E−02
  Beta (PANSS): −3.75 PANSS
IYD rs2076286 allele A, P 4.24E−02
  Beta (PANSS): −6.69 PANSS
JAG1 rs6074164 allele A, P 3.54E−02
  Beta (PANSS): −4.59 PANSS
KCNB1 rs34467662 allele C, P 2.39E−02
  Beta (PANSS): −9.06 PANSS
KCNIP4 rs10516363 allele A, P 3.20E−02
  Beta (PANSS): −3.43 PANSS
KCNQ1 rs422314 allele C, P 3.83E−02
  Beta (PANSS): −3.18 PANSS
KCNQ3 rs17659416 allele A, P 2.67E−02
  Beta (PANSS): −4.39 PANSS
LDB2 rs3805320 allele A, P 3.90E−02
  Beta (PANSS): −3.16 PANSS
LRFN2 rs2078460 allele A, P 3.06E−02
  Beta (PANSS): −3.67 PANSS
LRP1B rs2380943 allele C, P 1.96E−02
  Beta (PANSS): −3.47 PANSS
LRP1B rs34488772 allele A, P 2.80E−02
  Beta (PANSS): −8.41 PANSS
MCPH1 rs2515509 allele C, P 2.44E−02
  Beta (PANSS): −5.16 PANSS
MSR1 rs6981231 allele C, P 2.17E−02
  Beta (PANSS): −7.67 PANSS
MYO10 rs26317 allele A, P 2.25E−02
  Beta (PANSS): −3.80 PANSS
NCAM2 rs12483671 allele A, P 4.38E−02
  Beta (PANSS): −3.47 PANSS
NLGN1 rs2861338 allele A, P 2.69E−02
  Beta (PANSS): −3.51 PANSS
NPAS3 rs927763 allele G, P 3.26E−02
  Beta (PANSS): −4.45 PANSS
NRG3 rs12767532 allele G, P 2.93E−02
  Beta (PANSS): −3.66 PANSS
OPCML rs3018407 allele A, P 2.60E−02
  Beta (PANSS): −3.48 PANSS
OPCML rs3019855 allele C, P 3.16E−02
  Beta (PANSS): −3.40 PANSS
OPCML rs3920986 allele G, P 2.33E−02
  Beta (PANSS): −3.72 PANSS
PARD3B rs7589114 allele C, P 4.08E−02
  Beta (PANSS): −3.18 PANSS
PCDH15 rs2384470 allele C, P 2.33E−03
  Beta (PANSS): −5.21 PANSS
PIKFYVE rs17699982 allele A, P 4.51E−02
  Beta (PANSS): −4.12 PANSS
PLCG2 rs4889447 allele C, P 3.48E−02
  Beta (PANSS): −5.77 PANSS
PLXDC2 rs989767 allele A, P 4.48E−02
  Beta (PANSS): −3.31 PANSS
PRKG1 rs1904018 allele C, P 2.81E−02
  Beta (PANSS): −3.09 PANSS
PTPRT rs876523 allele C, P 2.06E−02
  Beta (PANSS): −3.45 PANSS
RGS7 rs2678780 allele A, P 2.47E−03
  Beta (PANSS): −4.56 PANSS
RGS7 rs10802943 allele C, P 3.52E−02
  Beta (PANSS): −2.99 PANSS
RIMBP2 rs12305517 allele C, P 2.16E−02
  Beta (PANSS): −5.62 PANSS
ROBO2 rs1470571 allele C, P 3.50E−02
  Beta (PANSS): −3.69 PANSS
RPRD1A rs4799835 allele A, P 4.31E−02
  Beta (PANSS): −3.76 PANSS
SAMD4A rs8011374 allele C, P 3.60E−02
  Beta (PANSS): −3.17 PANSS
SDK2 rs4969114 allele A, P 2.22E−02
  Beta (PANSS): −3.33 PANSS
SGCZ rs12155874 allele A, P 3.89E−02
  Beta (PANSS): −3.08 PANSS
SHC3 rs10122011 allele C, P 2.47E−02
  Beta (PANSS): −3.43 PANSS
SLC35F3 rs12087906 allele G, P 3.30E−02
  Beta (PANSS): −9.04 PANSS
SORBS1 rs4572071 allele A, P 3.25E−02
  Beta (PANSS): −3.66 PANSS
SORBS1 rs4918911 allele C, P 4.32E−02
  Beta (PANSS): −3.34 PANSS
ST8SIA1 rs4606528 allele C, P 3.26E−02
  Beta (PANSS): −3.84 PANSS
STX11 rs3734228 allele C, P 3.21E−02
  Beta (PANSS): −9.67 PANSS
STX11 rs6912580 allele C, P 3.21E−02
  Beta (PANSS): −9.67 PANSS
TGIF1 rs12606927 allele A, P 4.02E−02
  Beta (PANSS): −3.49 PANSS
TMC1 rs10869183 allele T, P 2.41E−02
  Beta (PANSS): −3.43 PANSS
TMTC2 rs7974520 allele A, P 3.49E−02
  Beta (PANSS): −3.64 PANSS
TRIM9 rs882413 allele C, P 2.00E−02
  Beta (PANSS): −4.35 PANSS
TSC1 rs1050700 allele A, P 4.13E−02
  Beta (PANSS): −3.29 PANSS
USP10 rs2012708 allele C, P 3.86E−02
  Beta (PANSS): −3.05 PANSS
WWOX rs7203676 allele C, P 2.23E−02
  Beta (PANSS): −3.87 PANSS
